ChEMBL document CHEMBL5038611, “Design, synthesis and bioevaluation of 6-aryl-1-(3,4,5-trimethoxyphenyl)-1H-benzo[d]imidazoles as tubulin polymerization inhibitors” (Eur J Med Chem, 2021)
Each block holds one compound with its values, some of them ahead of it. Active and inactive are the calls of the source. The rule behind the calls is not given here.

What was measured:
[1] = target: T1, Tubulin (Homo sapiens) (UniProt P68371+Q9H4B7+P0DPH7+P68366+Q13509+Q71U36+P04350+Q3ZCM7+P07437+P68363+Q9BQE3+Q6PEY2+Q13885+Q9BVA1+Q9BUF5); experiment: Inhibition of microtubule polymerization in human MCF7 cells assessed as disorganisation of microtubule by measuring short and wrapped structure at 2 times IC50 incubated for 24 hrs by DAPI staining based immunofluorescence assay; type: cell-based
[2] = system: MCF7; experiment: Antiproliferative activity against human MCF7 cells assessed as reduction in cell viability incubated for 72 hrs by MTT assay; type: functional, cell-based; conditions: MCF7, 72 h
[3] = system: SGC-7901; experiment: Antiproliferative activity against human SGC-7901 cells assessed as reduction in cell viability incubated for 72 hrs by MTT assay; type: functional, cell-based; conditions: SGC-7901, 72 h
[4] = system: A549; experiment: Antiproliferative activity against human A549 cells assessed as reduction in cell viability incubated for 72 hrs by MTT assay; type: functional, cell-based; conditions: A549, 72 h
[5] = species: Sus scrofa; experiment: Inhibition of porcine brain tubulin polymerization measured every 1 min for 90 mins by microplate based assay in the presence of GTP
[6] = system: MCF7; experiment: Induction of cell cycle arrest in human MCF7 cells assessed as accumulation of cells at G2/M phase at 0.5 fold IC50 measured after 24 hrs by flow cytometry (reference value: 11 %); type: functional
[7] = system: MCF7; experiment: Induction of cell cycle arrest in human MCF7 cells assessed as accumulation of cells at G2/M phase at 1 fold IC50 measured after 24 hrs by flow cytometry (reference value: 11 %); type: functional
[8] = system: MCF7; experiment: Induction of cell cycle arrest in human MCF7 cells assessed as accumulation of cells at G2/M phase at 2 fold IC50 measured after 24 hrs by flow cytometry (reference value: 11 %); type: functional
[9] = system: MCF7; experiment: Induction of apoptosis in human MCF7 cells assessed as viable cells at 1 fold IC50 after 48 hrs by Annexin-V-FITC/PI-staining based flow cytometric analysis (reference value: 96.2%); type: functional
[10] = system: MCF7; experiment: Induction of apoptosis in human MCF7 cells assessed as early apoptotic cells at 1 fold IC50 after 48 hrs by Annexin-V-FITC/PI-staining based flow cytometric analysis (reference value: 1.59%); type: functional
[11] = system: MCF7; experiment: Induction of apoptosis in human MCF7 cells assessed as late apoptotic cells at 1 fold IC50 after 48 hrs by Annexin-V-FITC/PI-staining based flow cytometric analysis (reference value: 0.556%); type: functional
[12] = system: MCF7; experiment: Induction of apoptosis in human MCF7 cells assessed as necrotic cells at 1 fold IC50 after 48 hrs by Annexin-V-FITC/PI-staining based flow cytometric analysis (reference value: 1.61%); type: functional
[13] = system: MCF7; experiment: Induction of apoptosis in human MCF7 cells assessed as viable cells at 2 fold IC50 after 48 hrs by Annexin-V-FITC/PI-staining based flow cytometric analysis (reference value: 96.2%); type: functional
[14] = system: MCF7; experiment: Induction of apoptosis in human MCF7 cells assessed as early apoptotic cells at 2 fold IC50 after 48 hrs by Annexin-V-FITC/PI-staining based flow cytometric analysis (reference value: 1.59%); type: functional
[15] = system: MCF7; experiment: Induction of apoptosis in human MCF7 cells assessed as late apoptotic cells at 2 fold IC50 after 48 hrs by Annexin-V-FITC/PI-staining based flow cytometric analysis (reference value: 0.556%); type: functional
[16] = system: MCF7; experiment: Induction of apoptosis in human MCF7 cells assessed as necrotic cells at 2 fold IC50 after 48 hrs by Annexin-V-FITC/PI-staining based flow cytometric analysis (reference value: 1.61%); type: functional
[17] = system: MCF7; experiment: Induction of apoptosis in human MCF7 cells assessed as viable cells at 3 fold IC50 after 48 hrs by Annexin-V-FITC/PI-staining based flow cytometric analysis (reference value: 96.2%); type: functional
[18] = system: MCF7; experiment: Induction of apoptosis in human MCF7 cells assessed as early apoptotic cells at 3 fold IC50 after 48 hrs by Annexin-V-FITC/PI-staining based flow cytometric analysis (reference value: 1.59%); type: functional
[19] = system: MCF7; experiment: Induction of apoptosis in human MCF7 cells assessed as late apoptotic cells at 3 fold IC50 after 48 hrs by Annexin-V-FITC/PI-staining based flow cytometric analysis (reference value: 0.556%); type: functional
[20] = system: MCF7; experiment: Induction of apoptosis in human MCF7 cells assessed as necrotic cells at 3 fold IC50 after 48 hrs by Annexin-V-FITC/PI-staining based flow cytometric analysis (reference value: 1.61%); type: functional
[21] = system: MCF7; experiment: Inhibition of cell migration in human MCF7 cells measured after 24 hrs by phase-contrast microscopy based wound healing assay; type: functional; conditions: dose 25-50 nM
[22] = system: 4T1; experiment: Antitumor activity against mouse 4T1 cells xenografted in BALB/c mouse assessed as reduction in tumor weight at 2.5 mg/kg, iv administered every 2 days for 2 weeks; type: functional; parameters: scale not given: the % may be the effect or the level left
[23] = Toxicity in BALB/c nude mouse xenografted with mouse 4T1 cells assessed as body weight loss at 2.5 mg/kg, iv administered every 2 days for 2 weeks relative to control; type: organism-based; conditions: in vivo, 336 h
[24] = Toxicity in BALB/c nude mouse xenografted with human MCF7 cells assessed as effect on heart at 2.5 mg/kg, iv administered every 2 days for 2 weeks; type: organism-based; conditions: in vivo, 336 h
[25] = Toxicity in BALB/c nude mouse xenografted with human MCF7 cells assessed as effect on liver at 2.5 mg/kg, iv administered every 2 days for 2 weeks; type: organism-based; conditions: in vivo, 336 h
[26] = Toxicity in BALB/c nude mouse xenografted with human MCF7 cells assessed as effect on spleen at 2.5 mg/kg, iv administered every 2 days for 2 weeks; type: organism-based; conditions: in vivo, 336 h
[27] = Toxicity in BALB/c nude mouse xenografted with human MCF7 cells assessed as effect on kidney at 2.5 mg/kg, iv administered every 2 days for 2 weeks; type: organism-based; conditions: in vivo, 336 h
[28] = target: T1, Tubulin (Homo sapiens); experiment: Binding affinity to colchicine binding site of tubulin (unknown origin) assessed as decrease in fluorescence of colchicine-tubulin complex by fluorescence based assay; type: protein-complex assay
[29] = Toxicity in BALB/c nude mouse xenografted with human MCF7 cells assessed as effect on spleen at 10 mg/kg, iv administered every 2 days for 2 weeks; type: organism-based; conditions: in vivo, 336 h

Compound: Nc1ccn([C@@H]2O[C@H](CO)[C@@H](O)C2(F)F)c(=O)n1 [GEMCITABINE]
Activity [29]: Toxic

Compound: COc1cc(-n2cnc3ccc(-c4cccc(Cl)c4)cc32)cc(OC)c1OC
IC50 [2]: 3.12 µM
IC50 [3]: 1.49 µM
IC50 [4]: 7.05 µM

Compound: COc1cc(-n2cnc3ccc(-c4cc(F)ccc4F)cc32)cc(OC)c1OC
IC50 [2]: 6.42 µM
IC50 [3]: 6.59 µM
IC50 [4]: 7.94 µM

Compound: COc1cc(-n2cnc3ccc(-c4ccc(C)cc4)cc32)cc(OC)c1OC
IC50 [2]: 0.11 µM
IC50 [3]: 0.2 µM
IC50 [4]: 1.94 µM

Compound: COc1cc(-n2cnc3ccc(-c4ccc(F)cc4)cc32)cc(OC)c1OC
IC50 [2]: 1.77 µM
IC50 [3]: 3.5 µM
IC50 [4]: 6.74 µM

Compound: COc1cc(-n2cnc3ccc(-c4cccc(F)c4)cc32)cc(OC)c1OC
IC50 [2]: 2.35 µM
IC50 [3]: 2.49 µM
IC50 [4]: 5.27 µM

Compound: COc1ccc(-c2ccc3ncn(-c4cc(OC)c(OC)c(OC)c4)c3c2)cc1
IC50 [2]: 0.21 µM
IC50 [3]: 0.082 µM
IC50 [4]: > 10 µM

Compound: COc1cc2c(c(OC)c1OC)-c1ccc(OC)c(=O)cc1[C@@H](NC(C)=O)CC2 [COLCHICINE]
IC50 [2]: 0.018 µM
IC50 [3]: 0.007 µM
IC50 [4]: 0.095 µM

Compound: COc1cc(-n2cnc3ccc(-c4cccc(C)c4)cc32)cc(OC)c1OC
IC50 [2]: 0.36 µM
IC50 [3]: 1.24 µM
IC50 [4]: 3.82 µM

Compound: COc1cc(-n2cnc3ccc(-c4ccc(C(F)(F)F)cc4)cc32)cc(OC)c1OC
IC50 [2]: 0.76 µM
IC50 [3]: 0.89 µM
IC50 [4]: 3.39 µM

Compound: COc1cc(-n2cnc3ccc(-c4ccccc4Cl)cc32)cc(OC)c1OC
IC50 [2]: > 10 µM
IC50 [3]: > 10 µM
IC50 [4]: > 10 µM

Compound: COc1cc(-n2cnc3ccc(-c4cccc(O)c4)cc32)cc(OC)c1OC
IC50 [2]: 0.35 µM
IC50 [3]: 0.053 µM
IC50 [4]: 0.25 µM

Compound: COc1cc(-n2cnc3ccc(-c4cccc([N+](=O)[O-])c4)cc32)cc(OC)c1OC
IC50 [2]: 4.56 µM
IC50 [3]: 0.38 µM
IC50 [4]: 5.41 µM

Compound: COc1cc(-n2cnc3ccc(-c4ccc(O)cc4)cc32)cc(OC)c1OC
IC50 [2]: 4.16 µM
IC50 [3]: > 10 µM
IC50 [4]: 5.09 µM

Further lines, with some results ahead:

inhibition [1]: Active
IC50 [2]: 0.037 µM
IC50 [3]: 0.044 µM
IC50 [4]: 0.2 µM
inhibition [5]: Dose-Dependent Effect
Activity [28]: Active
Compound: COc1ccc(-c2ccc3ncn(-c4cc(OC)c(OC)c(OC)c4)c3c2)cc1O
Activity [6]: 15%
Activity [7]: 22%
Activity [8]: 72%
Activity [9]: 75.1%
Activity [10]: 16%
Activity [11]: 4.4%
Activity [12]: 1.51%
Activity [13]: 52.8%
Activity [14]: 35.6%
Activity [15]: 10.4%
Activity [16]: 0.96%
Activity [17]: 50.6%
Activity [18]: 37.6%
Activity [19]: 11.4%
Activity [20]: 0.271%
inhibition [21]: Dose-Dependent Effect
Activity [22]: 52%
Activity [23]: Non-Toxic
Activity [24]: Non-Toxic
Activity [25]: Non-Toxic
Activity [26]: Non-Toxic
Activity [27]: Non-Toxic

IC50 [2]: 2.15 µM
IC50 [3]: 3.04 µM
IC50 [4]: 9.25 µM
Compound: COc1cc(-n2cnc3ccc(-c4cccc(C)c4C)cc32)cc(OC)c1OC

IC50 [2]: 0.52 µM
IC50 [3]: 0.43 µM
IC50 [4]: 1.43 µM
Compound: COc1ccc(-c2ccc3ncn(-c4cc(OC)c(OC)c(OC)c4)c3c2)cc1F

IC50 [2]: 1.75 µM
IC50 [3]: 5.05 µM
IC50 [4]: 4.32 µM
Compound: COc1ccccc1-c1ccc2ncn(-c3cc(OC)c(OC)c(OC)c3)c2c1

IC50 [2]: 1.54 µM
IC50 [3]: 0.45 µM
IC50 [4]: 2.51 µM
Compound: COc1cc(-n2cnc3ccc(-c4ccc(C(C)=O)cc4)cc32)cc(OC)c1OC

IC50 [2]: > 10 µM
IC50 [3]: > 10 µM
IC50 [4]: > 10 µM
Compound: COc1cc(-c2ccc3ncn(-c4cc(OC)c(OC)c(OC)c4)c3c2)cc(OC)c1OC

IC50 [2]: 5.42 µM
IC50 [3]: > 10 µM
IC50 [4]: > 10 µM
Compound: COc1cc(-n2cnc3ccc(-c4ccc(Cl)cc4Cl)cc32)cc(OC)c1OC

IC50 [2]: 0.18 µM
IC50 [3]: 0.021 µM
IC50 [4]: 0.64 µM
Compound: COc1cc(-n2cnc3ccc(-c4cccc(N)c4)cc32)cc(OC)c1OC

IC50 [2]: 1.32 µM
IC50 [3]: 1.27 µM
IC50 [4]: > 10 µM
Compound: COc1cc(-n2cnc3ccc(-c4ccc(Cl)cc4)cc32)cc(OC)c1OC

IC50 [2]: 2.29 µM
IC50 [3]: 0.29 µM
IC50 [4]: 3.06 µM
Compound: COc1cc(-n2cnc3ccc(-c4ccccc4)cc32)cc(OC)c1OC

IC50 [2]: 1.71 µM
IC50 [3]: 2.97 µM
IC50 [4]: 8.55 µM
Compound: CCOc1ccc(-c2ccc3ncn(-c4cc(OC)c(OC)c(OC)c4)c3c2)cc1

IC50 [2]: 0.056 µM
IC50 [3]: 5.65 µM
IC50 [4]: > 10 µM
Compound: COc1cc(-n2cnc3ccc(-c4ccc(C)cc4F)cc32)cc(OC)c1OC

IC50 [2]: 0.74 µM
IC50 [3]: 0.079 µM
IC50 [4]: 8.94 µM
Compound: COc1cc(-n2cnc3ccc(-c4ccc([N+](=O)[O-])cc4)cc32)cc(OC)c1OC

IC50 [2]: 1.61 µM
IC50 [3]: 3.31 µM
IC50 [4]: 3.18 µM
Compound: COc1cccc(-c2ccc3ncn(-c4cc(OC)c(OC)c(OC)c4)c3c2)c1
